Columns and labels:
NLRP3 inflammasome = target: T1, NLRP3 inflammasome (Homo sapiens, UniProt Q96P20); experiment: IL-1β TR-FRET assay (THP-1 cells differentiated to macrophages with IFN-γ, LPS primed, ATP activated; HTRF); assay type: cell-based; details: THP-1 macrophages, 50 ng/mL LPS priming, compound 30 min, 20 mM ATP 2 hours
T1 construct: IL-1beta HTRF
Procedure: (§1) The biological activity of Compound (I) with respect to NLRP3 was determined using the following in vitro methods.
IL-1β TR-FRET Assay (Reported as IC50)
Monocytic THP-1 cells (ATCC: TIB-202) were maintained in accordance with the provider's instructions in RPMI media (Life Technologies, Cat #A10491-01); RPMI was supplemented with 10% heat inactivated fetal bovine serum (Corning, Cat #35-010-CV). The cells were differentiated into macrophages by the addition of 25 ng/mL IFN-γ (PeproTech, Cat #AF300-02-100UG) for 24 hours at 37 °C/5% CO2. Media was exchanged with fresh media with no FBS, and the cells were treated with 50 ng/mL LPS (priming step) (LPS-EK: Invivogen, Cat #tlrl-peklps). The cells were plated at 240,000 cells per well in 384-well flat-bottom cell culture plates (FALCON, Cat #353962) and were incubated for 24 hours at 37 °C/5% CO2. Compounds were serially diluted (half log dilutions) with DMSO and were finally diluted with Media with no FBS. The compounds were added to the cells in 384-well plates (added in 1:3) and then the plates were incubated for 30 minutes at 37 °C/5% CO2. The NLRP3 inflammasome was activated with the addition of 20 mM ATP (Sigma Cat #A3377-25G) and the cells were incubated for 2 hours at 37 °C/5% CO2. At the end of the incubation period, 30 μL supernatant was transferred to another 384-well plate and mixed on a plate shaker for 1 minutes. The supernatant was mixed with HTRF Antibody (Human IL1 beta kit, Cisbio, 62HIL1BPEH) in assay plates (Greiner Bio-One, Cat #784075) and the assay plates were incubated in shading box at room temperature for 16-24 hours. HTRF signal was measured by EnVision (Perkinelmer) in accordance with the manufacturer's instructions.
(§2) The IC50 values were calculated from a plot of percentage of inhibition versus the inhibitor concentration by a logistics curve fit according to: Y=[Bottom+(Top−Bottom)]/(1+10^[(Log IC50−X)·Hill Slope], where Y is the % inhibition at the inhibitor concentration, X, “Bottom” is the lowest inhibition value, i.e., 0%, “Top” is the maximum inhibition value, i.e., 100%, and the “Hill Slope” describes the slope of the sigmoidal curve between the “Bottom” and “Top” values. The curve fitting was conducted with XLfit (ver. 5.5.0.5, ID Business Solutions Limited) or internally developed software.
(§3) Table 2 lists in vitro biological assay data (IL-1β and TNF-α) for the compounds shown in the examples. These assays are described in the section entitled Biological Activity, above.

NF-κB pathway = experiment: TNF-α assay (THP-1 cells differentiated to macrophages with IFN-γ, NF-κB pathway activated with LPS; ELISA); assay type: cell-based, Human; details: compound 30 min, 50 ng/mL LPS 3 hours
Procedure: as §1
TNF-α Assay (Reported as IC50)
Monocytic THP-1 cells (ATCC: TIB-202) were maintained in accordance with the provider's instructions in RPMI media (Life Technologies, Cat #A10491-01); RPMI was supplemented with 10% heat inactivated fetal bovine serum (Hyclone Cat #SH30396.03). The cells were differentiated into macrophages by the addition of 25 ng/mL IFN-γ for 24 hours at 37 °C/5% CO2. Media was exchanged with fresh media with no FBS. The cells were plated at 40,000 cells per well in 384-well flat-bottom cell culture plates (Costar 3764) containing compounds (added in 1:1000) in a 1:3.16 serial dilution series in DMSO and were incubated for 30 minutes at 37 °C/5% CO2. The NF-κB pathway was activated with the addition of 50 ng/mL LPS and the cells were incubated for 3 hours at 37 °C/5% CO2. At the end of the incubation period, supernatant ([…]) was removed, and […] were monitored using an ELISA (Human TNF-α ELISA, R&D systems, Cat #DY210) according to the manufacturer's instructions.
as §2, §3

[1] = Homo sapiens, THP-1, THP-1 macrophages

T1 sequence (Q96P20 whole entry): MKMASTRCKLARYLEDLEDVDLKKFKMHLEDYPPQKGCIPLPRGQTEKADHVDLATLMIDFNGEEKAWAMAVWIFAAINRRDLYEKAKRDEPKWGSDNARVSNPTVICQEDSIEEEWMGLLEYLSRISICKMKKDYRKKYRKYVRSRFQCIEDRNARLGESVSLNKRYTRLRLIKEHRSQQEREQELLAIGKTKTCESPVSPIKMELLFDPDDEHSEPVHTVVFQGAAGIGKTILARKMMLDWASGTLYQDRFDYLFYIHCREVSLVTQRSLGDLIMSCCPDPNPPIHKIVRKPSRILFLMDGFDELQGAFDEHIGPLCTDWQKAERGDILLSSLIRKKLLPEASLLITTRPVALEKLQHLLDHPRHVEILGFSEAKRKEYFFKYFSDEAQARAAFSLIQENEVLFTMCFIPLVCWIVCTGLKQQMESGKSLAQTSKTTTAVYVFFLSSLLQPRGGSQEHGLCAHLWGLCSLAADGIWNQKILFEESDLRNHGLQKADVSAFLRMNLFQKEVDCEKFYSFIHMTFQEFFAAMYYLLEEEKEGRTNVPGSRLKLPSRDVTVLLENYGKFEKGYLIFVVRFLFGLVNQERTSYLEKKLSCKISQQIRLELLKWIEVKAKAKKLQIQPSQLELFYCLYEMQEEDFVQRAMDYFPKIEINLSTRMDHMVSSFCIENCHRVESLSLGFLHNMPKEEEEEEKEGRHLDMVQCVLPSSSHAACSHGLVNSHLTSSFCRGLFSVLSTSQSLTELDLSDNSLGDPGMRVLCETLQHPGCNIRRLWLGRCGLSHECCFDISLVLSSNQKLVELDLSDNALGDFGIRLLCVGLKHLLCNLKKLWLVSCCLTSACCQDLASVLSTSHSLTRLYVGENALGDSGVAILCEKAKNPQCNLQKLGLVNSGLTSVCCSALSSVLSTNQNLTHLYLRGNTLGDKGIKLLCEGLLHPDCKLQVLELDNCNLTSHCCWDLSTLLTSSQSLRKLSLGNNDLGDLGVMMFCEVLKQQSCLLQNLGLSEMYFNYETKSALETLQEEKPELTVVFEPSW

| IC50 (NLRP3 inflammasome) [nM] | IC50 (NF-κB pathway; THP-1 macrophages) [µM] | IC50 (NF-κB pathway; [1]) [µM] | SMILES |
| --- | --- | --- | --- |
| 440 | > 30 |  | Cc1cc(C)c(-n2cc3sc(N[C@H]4COC[C@H]4F)nc3n2)c(O)c1 (single isomer, unassigned) [Example 145, 2-(5-{[(3R,4R)-4-fluorooxolan-3-yl]amino}-2H-pyrazolo[3,4-d][1,3]thiazol-2-yl)-3,5-dimethylphenol or 2-(5-{[(3S,4S)-4-fluorooxolan-3-yl]amino}-2H-pyrazolo[3,4-d][1,3]thiazol-2-yl)-3,5-dimethylphenol (tR2)] |
| 46 | > 10 |  | Cc1cc(C)c(-n2cc3sc(N[C@H]4CN(C)CCC4F)nc3n2)c(O)c1 (stereo in doubt) [Example 10, 2-(5-{[(3S,4S)-4-fluoro-1-methylpiperidin-3-yl]amino}-2H-pyrazolo[3,4-d][1,3]thiazol-2-yl)-3,5-dimethylphenol] |
| 25 |  | > 10 | CN1CCC[C@@H](Nc2nc3nn(-c4ccc(Br)cc4O)cc3s2)C1 [Example 1, 5-bromo-2-(5-{[(3R)-1-methylpiperidin-3-yl]amino}-2H-pyrazolo[3,4-d][1,3]thiazol-2-yl)phenol] |
| 15 |  | > 30 | Cc1cc(F)cc(O)c1-n1cc2sc(N[C@@H]3CCCN(C)C3)nc2n1 [Example 5, 5-fluoro-3-methyl-2-(5-{[(3R)-1-methylpiperidin-3-yl]amino}-2H-pyrazolo[3,4-d][1,3]thiazol-2-yl)phenol] |
| 980 |  | > 10 | Cc1cc(F)cc(O)c1-n1cc2sc(N[C@@H]3CCCC[C@H]3O)nc2n1 [Example 6, 5-fluoro-2-(5-{[(1R,2R)-2-hydroxycyclohexyl]amino}-2H-pyrazolo[3,4-d][1,3]thiazol-2-yl)-3-methylphenol] |
| 290 |  | > 30 | CN1C[C@H](F)C[C@@H](Nc2nc3nn(-c4c(O)cccc4Cl)cc3s2)C1 [Example 8, 3-chloro-2-(5-{[(3R,5R)-5-fluoro-1-methylpiperidin-3-yl]amino}-2H-pyrazolo[3,4-d][1,3]thiazol-2-yl)phenol] |
| 14 |  | > 30 | Cc1cc(Cl)cc(O)c1-n1cc2sc(N[C@@H]3C[C@@H](F)CN(C)C3)nc2n1 [Example 9, 5-chloro-2-(5-{[(3R,5R)-5-fluoro-1-methylpiperidin-3-yl]amino}-2H-pyrazolo[3,4-d][1,3]thiazol-2-yl)-3-methylphenol] |

Continued, compound first:

| SMILES | IC50 (NLRP3 inflammasome) [nM] | IC50 (NF-κB pathway; THP-1 macrophages) [µM] | IC50 (NF-κB pathway; [1]) [µM] |
| --- | --- | --- | --- |
| Cc1cc(C)c(-n2cc3sc(N[C@H]4COC[C@@H]4F)nc3n2)c(O)c1 (single isomer, unassigned) [Example 143, 2-(5-{[(3R,4S)-4-fluorooxolan-3-yl]amino}-2H-pyrazolo[3,4-d][1,3]thiazol-2-yl)-3,5-dimethylphenol or 2-(5-{[(3S,4R)-4-fluorooxolan-3-yl]amino}-2H-pyrazolo[3,4-d][1,3]thiazol-2-yl)-3,5-dimethylphenol (tR2)] | 430 | > 30 |  |
| Cc1cc(Cl)cc(O)c1-n1cc2sc(N[C@@H]3CCCN(C)C3)nc2n1 [Example 2, 5-chloro-3-methyl-2-(5-{[(3R)-1-methylpiperidin-3-yl]amino}-2H-pyrazolo[3,4-d][1,3]thiazol-2-yl)phenol] | 1.6 |  | > 30 |
| Cc1cc(C)c(-n2cc3sc(N[C@@H]4C[C@@H](F)CN(C)C4)nc3n2)c(O)c1 [Example 3, 2-(5-{[(3R,5R)-5-fluoro-1-methylpiperidin-3-yl]amino}-2H-pyrazolo[3,4-d][1,3]thiazol-2-yl)-3,5-dimethylphenol] | 8.2 |  | > 30 |
| Cc1cc(C)c(-n2cc3sc(N[C@@H]4CCCN(C)C4)nc3n2)c(O)c1 [Example 4, 3,5-dimethyl-2-(5-{[(3R)-1-methylpiperidin-3-yl]amino}-2H-pyrazolo[3,4-d][1,3]thiazol-2-yl)phenol] | 3.6 |  | > 30 |
| CCN1C[C@H](F)C[C@@H](Nc2nc3nn(-c4c(C)cc(C)cc4O)cc3s2)C1 [Example 7, 2-(5-{[(3R,5R)-1-ethyl-5-fluoropiperidin-3-yl]amino}-2H-pyrazolo[3,4-d][1,3]thiazol-2-yl)-3,5-dimethylphenol] | 13 |  | > 30 |

Reference: patent publication US20260365671A1, “HETEROCYCLIC COMPOUND” (Takeda Pharmaceutical Company Limited, priority 2022, published 2026)
